From patent EP4095134A1, “POLYCYCLIC COMPOUNDS FOR THE TREATMENT OF NEUROLOGICAL INDICATIONS” (UCL Business Ltd, priority 2021, dated 2022)
Like-named read-outs stand apart in the source and are kept apart here.

What was measured:
P2Y1 receptor = target: T1, P2Y1 receptor (Homo sapiens, UniProt P47900); test: P2Y1 IP1 accumulation HTRF assay, antagonism of agonist MRS2365 in stably transfected cells; assay type: cell-based; conditions: Example 2 table; as for example 1
T1 construct: expressed in transfected cells
T1 sequence (P47900 whole entry): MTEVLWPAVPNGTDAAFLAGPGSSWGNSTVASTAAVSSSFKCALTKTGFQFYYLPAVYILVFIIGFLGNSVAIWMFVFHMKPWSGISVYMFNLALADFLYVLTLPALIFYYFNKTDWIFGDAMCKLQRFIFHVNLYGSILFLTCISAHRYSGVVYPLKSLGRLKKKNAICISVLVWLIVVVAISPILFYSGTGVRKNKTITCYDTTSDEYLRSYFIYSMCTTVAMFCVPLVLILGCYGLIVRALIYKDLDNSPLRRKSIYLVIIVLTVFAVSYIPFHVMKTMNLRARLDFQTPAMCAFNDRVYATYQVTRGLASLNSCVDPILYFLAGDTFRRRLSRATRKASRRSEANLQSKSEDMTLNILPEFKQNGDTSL
How it was run: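 HTRF IP1 accumulation in stably P2Y1-overexpressing cells, plated the day before. Compounds pre-incubated 1 hour (10-point semi-log curve from 10µM, 0.1% DMSO), then 5nM MRS2365 added for 60 minutes, both at 37°C / 5% CO2. IP1 interpolated from standard curve; IC50 from N ≥ 4 runs.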

[1] = CNS penetration, single compound oral or intravenous administration, brain and plasma by LC-MS/MS; assay type: in vivo, C57B16/J mice; conditions: mouse
Protocol: To assess pharmacokinetic properties and CNS penetration of compounds, compounds were administered to mice via the oral and intravenous routes. For oral dosing, compound solutions were prepared in a suitable vehicle (such as 10% PEG400/5% Kolliphor EL/85% H2O) at a concentration of 0.5mg/mL. Compounds were dosed via oral gavage at a dosing volume of 10mL/kg to C57B16/J mice, for a final dose of 5mg/kg. Animals were culled at 8 timepoints to 24 hours, and plasma and brain samples collected for bioanalysis.
For intravenous dosing, compound solutions were prepared in a suitable vehicle (such as 10% DMSO/90%HPCD (20%)) at a concentration of 0.2mg/mL. Compound was administered via the intravenous route in a dosing volume of 5mL/kg, for a final dose of 1mg/kg. Animals were culled at various timepoints out to 24 hours, and plasma and brain collected for bioanalysis.
For bioanalysis, compound was prepared in DMSO at a final concentration of 1mg/mL. Analytical standards were prepared from the initial 1mg/mL stock solution of compound, with a 12-point standard curve range from 0.5ng/mL to 2000ng/mL, with independent quality control tests from 1ng/mL to 1000ng/mL run to validate the standards. All standards and QC samples were matrix matched to eliminate possible suppression. Plasma samples were prepared with a 1:10 dilution in plasma. Brain tissue samples were homogenized in 0.1M phosphate buffer solution at a ratio of 1:4, and used without further dilution. Dose solutions were diluted in a control matrix to a relative concentration that fell on the standard curve. Cold acetonitrile containing internal standard was added to all samples, standards, dose samples and QC samples; samples were then centrifuged for 30 minutes at 4000rpm. After centrifugation, supernatant was transferred to a new 96-well plate, diluted with an equal volume of water and mixed thoroughly before LC-MS analysis.
Supernatents were analysed by LC-MS/MS. From the analysis data a response ratio was obtained using the formula Response Ratio = Test Peak Area/Internal Standard Peak Area. From the standard curve, the test peak area was converted to concentration of test compound.
(§1) To establish CNS penetration, the ratio of the concentration of each compound in the […] was assessed.

[2] = CNS penetration, intravenous cassette dosing, brain and plasma by LC-MS/MS; assay type: in vivo, C57B16/J mice; conditions: mouse, iv (0.4 mg/kg), t = 2 hr
Protocol: To assess penetration of compounds into the mouse central nervous system, intravenous pharmacokinetic studies were undertaken in C57B16/J mice. In each study, up to five compounds were formulated in a vehicle comprising DMSO, Kolliphor EL and HPCD (20% w/v) to a final dose for each compound of 0.4mg/kg. Compounds were then combined into a single dosing solution and administered together via the intravenous route into 24 mice. Total compound dose administered to each mouse was 2mg/kg. Mice were culled at 0.08, 0.25, 0.5, 1, 2, 4, 8 and 24 hours post dosing, and brain and plasma collected for bioanalysis.
For bioanalysis, compounds were prepared in DMSO and aliquoted together to ensure a final concentration of 1mg/mL per compound in DMSO. Analytical standards were prepared from the initial 1mg/mL stock solution of compound, with a 12-point standard curve range from 0.5ng/mL to 2000ng/mL, with independent quality control tests from 1ng/mL to 1000ng/mL run to validate the standards. All standards and QC samples were matrix matched to eliminate possible suppression. Plasma samples were prepared with a 1:10 dilution in plasma. […]
Supernatents were analysed by LC-MS/MS. […]
as §1

[3] = brain, 1 mg/kg, iv, single compound, AUC0-24h, read-out: CNS penetration: total brain to plasma ratio AUC0-24h iv
[4] = brain, 1 mg/kg, iv, single compound, t = 2 h, read-out: CNS penetration: total brain to plasma ratio @ t =2 h iv
[5] = brain, po, p.o (5 mg/kg), AUC 0-24 h, read-out: CNS penetration: total brain to plasma ratio AUC 0-24 h

Row | Compound | IC50 (P2Y1 receptor) [nM] | Kp at 24 h [1, 5] | further results
1 | CN1CC[C@@]1(c1ccccc1Oc1ncccc1NC(=O)Nc1ccc(OC(F)(F)F)cc1)C(F)(F)F (single isomer, unassigned) | 39 | – | Kp at 2 h ([1]; C57B16/J, brain and plasma, po, p.o (5 mg/kg), value at t = 2h, read-out: CNS penetration: total brain to plasma ratio po (value at t = 2h)): 2.4
2 | CC1(C)CN(c2ccccc2NC(=O)Nc2ccc(OC(F)(F)F)cc2)c2c(O)ccc(-c3ccc(Cl)cc3)c21 [RS 1, 1-(2-(4-(4-chlorophenyl)-7-hydroxy-3,3-dimethylindolin-1-yl)phenyl)-3-(4-(trifluoromethoxy)phenyl)urea, reference compound] | 33 | – | CNS penetration: total brain to plasma ratio [2]: BLLQ^d iv
3 | O=C(Nc1ccc(OC(F)(F)F)cc1)Nc1cccnc1Oc1ccccc1[C@]1(C(F)(F)F)CCO1 [drawing 316] | 119 | 2.4 | Kp at 24 h [1, 3]: 3.1; Kp at 2 h [1, 4]: 3.2
4 | Cc1ccc(NC(=O)Nc2ccc(OC(F)(F)F)cc2F)c(Oc2ccccc2[C@@]2(C(F)(F)F)CCO2)n1 [drawing 319] | 34 | 1.7 | –
5 | O=C(Nc1ccc(OC(F)(F)F)cc1)Nc1cccnc1Oc1ccccc1C1(C(F)(F)F)CCO1 (stereo not drawn) | 84 | – | Kp ([1]; C57B16/J, brain and plasma, 1 mg/kg, iv, single compound, AUC0-24h, read-out: CNS penetration: total brain to plasma ratio AUC0-24h iv): 2.1; Kp at 2 h ([1]; C57B16/J, brain and plasma, 1 mg/kg, iv, single compound, t = 2 h, read-out: CNS penetration: total brain to plasma ratio @ t =2 h iv): 1.7; Kp ([1]; C57B16/J, brain and plasma, oral, p.o (5 mg/kg), AUC 0-24 h, read-out: CNS penetration: total brain to plasma ratio AUC 0-24 h): 1.9
6 | Cc1ccc(NC(=O)Nc2ccc(Cl)cc2F)c(Oc2ccccc2[C@@]2(C(F)(F)F)CCO2)n1 [drawing 320] | 41 | 1.3 | –
7 | O=C(Nc1ccc(OC(F)(F)F)cc1)Nc1cccnc1Oc1ccccc1[C@@]1(C(F)(F)F)CCO1 [drawing 315] | 68 | 2.6 | Kp at 24 h [1, 3]: 3.3; Kp at 2 h [1, 4]: 2.8
8 | Cc1ccc(NC(=O)Nc2ccc(OC(F)(F)F)cc2)c(Oc2ccccc2C(C)(C)C)n1 [RS2, 1-(2-(2-(tert-butyl)phenoxy)-6-methylpyridin-3-yl)-3-(4-(trifluoromethoxy)phenyl)urea] | – | – | CNS penetration: total brain to plasma ratio [2]: BLLQ^d iv
